The values below are quoted from earlier work in patent US20240139133A1, “TOPICAL NAPROXEN FORMULATIONS AND THEIR USE” (SMARTECH TOPICAL, INC., priority 2021, published 2024).

Each structure is given as a SMILES string.

For this data set the following is noted: printed as a negative log P.

By log P is commonly meant a log measure of how a compound divides between an organic and an aqueous phase. On to `CCOCCOCCO` [Transcutol, 2-(2-Ethoxyethoxy)ethanol], for which the log partition coefficient (log P) is approximately -0.5.
